Assay [1] has as its system Rattus norvegicus. Description: Antiallodynic effect investigated in chronic sciatic nerve constriction injury rats after 1 hr of 60 mg/kg i.p. administration and value reported as paw withdrawal threshold. The conditions noted are these: route intraperitoneal. Format: functional.
Assay [2] deals with Rattus norvegicus. Description: Antiallodynic effect investigated in chronic sciatic nerve constriction injury rats before 1 hr of 60 mg/kg i.p. administration and value reported as paw withdrawal threshold. Format: functional. The conditions noted are these: route intraperitoneal.

This note sets out measurements from ChEMBL document CHEMBL1146733, “Effect of gabapentin derivates on mechanical allodynia-like behaviour in a rat model of chronic sciatic constriction injury” (2004).

For `CC(C)C[C@@H](CN)CC(=O)OC(C)CCOC(=O)CC1(CN)CCCCC1.Cl.Cl` (some centres not stated), the PWT with Rattus norvegicus [1] is reported as 11.4 g; in the assay on Rattus norvegicus [2] it was 4 g.

Take `CC(C)C[C@@H](CN)CC(=O)OCCOC(=O)CC1(CN)CCCCC1.Cl.Cl`: the PWT worked out at 19 g in the assay with Rattus norvegicus [1] and 3.33 g in the assay on Rattus norvegicus [2].

For the compound `Cl.Cl.NCC1(CC(=O)OCCCCOC(=O)CC2(CN)CCCCC2)CCCCC1`, the PWT is listed as 5.6 g with Rattus norvegicus [1] and 4 g in the assay with Rattus norvegicus [2].

As for `Cl.Cl.NCC1(CC(=O)OCCCOC(=O)CC2(CN)CCCCC2)CCCCC1`, the PWT with Rattus norvegicus [1] is listed as 19.4 g; with Rattus norvegicus [2], 4.8 g.

As to `CC(C)C[C@@H](CN)CC(=O)OCCCOC(=O)CC1(CN)CCCCC1.Cl.Cl`, the PWT is reported as 7.8 g with Rattus norvegicus [1] and 3.6 g in the assay with Rattus norvegicus [2].

As for `CC(C)C[C@H](CN)CC(=O)OCCCCOC(=O)C[C@H](CN)CC(C)C.Cl.Cl`, the values for the PWT in the assay on Rattus norvegicus [1] and in the assay with Rattus norvegicus [2] were 8.5 g and 4.5 g, respectively.

In the case of `CC(C)C[C@@H](CN)CC(=O)OCCCCOC(=O)CC1(CN)CCCCC1.Cl.Cl`, the figures for the PWT with Rattus norvegicus [1] and in the assay on Rattus norvegicus [2] were 8.56 g and 4.17 g, respectively.

In the case of `COC(=O)CC1(CN)CCCCC1.Cl`, the values for the PWT with Rattus norvegicus [1] and in the assay on Rattus norvegicus [2] were 22.8 g and 6.4 g, respectively.

As for `CC(C)C[C@H](CN)CC(=O)OCCCOC(=O)C[C@H](CN)CC(C)C.Cl.Cl`, the figures for the PWT in the assay with Rattus norvegicus [1] and in the assay on Rattus norvegicus [2] were 10.33 g and 6 g, respectively.

Regarding `CC(C)C[C@@H](CN)CC(=O)OCC(C)(C)COC(=O)CC1(CN)CCCCC1.Cl.Cl`, the PWT with Rattus norvegicus [1] is on record as 7.2 g; with Rattus norvegicus [2], 4.4 g.

On to `CC(C)C[C@H](CN)CC(=O)OCCOC(=O)C[C@H](CN)CC(C)C.Cl.Cl`, for which the PWT amounted to 7.9 g with Rattus norvegicus [1] and 2.9 g in the assay with Rattus norvegicus [2].

Consider `COC(=O)C[C@@H](CN)CC(C)C.Cl`, for which the PWT with Rattus norvegicus [1] was found to be 6.8 g; in the assay on Rattus norvegicus [2] it was 5.2 g.

On to `Cl.Cl.NCC1(CC(=O)OCCOC(=O)CC2(CN)CCCCC2)CCCCC1`, for which the values for the PWT in the assay with Rattus norvegicus [1] and in the assay on Rattus norvegicus [2] were 18.67 g and 3.4 g, respectively.

`COc1ccc(C(CN(C)C)C2(OC(=O)CCC(=O)NC34CC5CC(C)(CC(C)(C5)C3)C4)CCCCC2)cc1.Cl.Cl` (configuration not stated): the values for the PWT in the assay with Rattus norvegicus [1] and in the assay on Rattus norvegicus [2] were 5.6 g and 3.36 g, respectively.

Regarding `CC(C)C[C@H](CNC(=O)CCC(=O)NC12CC3CC(C)(CC(C)(C3)C1)C2)CC(=O)O`, the PWT was 13.2 g in the assay with Rattus norvegicus [1] and 3.32 g in the assay on Rattus norvegicus [2].

Turning to `CC(C)C[C@H](CNC(=O)CCC(=O)NC[C@@H](CC(=O)O)CC(C)C)CC(=O)O`, the PWT in the assay on Rattus norvegicus [1] was determined as 6 g; in the assay on Rattus norvegicus [2], 4 g.

In the case of `CCC(COC(=O)CC1(CN)CCCCC1)OC(=O)C[C@H](CN)CC(C)C.Cl.Cl` (stereo in doubt; 2003325), the PWT with Rattus norvegicus [1] came out at 6.8 g; in the assay with Rattus norvegicus [2] (60 mg/kg), 4 g.

On to `CC(C)C[C@@H](CN)CC(=O)OCCCCCOC(=O)CC1(CN)CCCCC1.Cl.Cl` (stereo in doubt; 2003327), for which the PWT is recorded as 20.67 g in the assay with Rattus norvegicus [1] (60 mg/kg) and 3.33 g with Rattus norvegicus [2] (60 mg/kg).

Compound `CCC(COC(=O)CC1(CN)CCCCC1)OC(=O)C[C@H](CN)CC(C)C.Cl.Cl` (stereo in doubt; 2003415) had a PWT in the assay with Rattus norvegicus [2] (60 mg/kg) of 4.4 g.

For the compound `CC(C)C[C@@H](CN)CC(=O)OCCCCCOC(=O)CC1(CN)CCCCC1.Cl.Cl` (stereo in doubt; 20030417), the PWT is recorded as 13.8 g with Rattus norvegicus [1] (60 mg/kg) and 2.8 g in the assay with Rattus norvegicus [2] (60 mg/kg).

Consider `NCC1(CC(=O)O)CCCCC1` [GABAPENTIN], for which the PWT in the assay on Rattus norvegicus [1] is given as 13.5 g; in the assay on Rattus norvegicus [2], 2.23 g.

With `CC12CC3CC(C)(C1)CC(N)(C3)C2.Cl` [MEMANTINE HYDROCHLORIDE], the PWT in the assay on Rattus norvegicus [1] turned out to be 10.4 g; in the assay with Rattus norvegicus [2], 2.8 g.

With `CC(C)C[C@H](CN)CC(=O)O` [PREGABALIN], the PWT with Rattus norvegicus [1] is 18.86 g; in the assay on Rattus norvegicus [2], 3.43 g.

Turning to `COc1ccc(C(CN(C)C)C2(O)CCCCC2)cc1` (configuration not stated) [VENLAFAXINE], the PWT in the assay with Rattus norvegicus [1] is listed as 22 g; with Rattus norvegicus [2], 2 g.
